The values below come from patent US10112935B2, “Indazolyl thiadiazolamines and related compounds for inhibition of Rho-associated protein kinase and the treatment of disease” (Lycera Corporation, priority 2015, dated 2018).

The subject of assay [1] is ROCK. The settings on record: porcine, IL-1 beta-induced; cited from earlier work.
In assay [2] the test system is ROCK. The settings on record: rat stroke model; cited from earlier work.
The target of assay [3] is GST-tagged human ROCK1 catalytic domain 1-477 (Homo sapiens (Human), UniProt Q13464). As to the kind of experiment: Inhibition of Rho-associated protein kinase isoform 1 (LANCE Ultra ULight-CREBtide FRET kinase assay). The following applies: 30 μM was the highest concentration analyzed. The class given is biochemical. Summed up:
(§1)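 Baculovirus-expressed kinase phosphorylated ULight-CREBtide for 90 min at room temperature before the reaction was stopped with 10 mM EDTA. Phospho-substrate was detected by TR-FRET with 1 nM Europium-anti-phospho-CREB (Ser133) antibody after 60 min at room temperature.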
Background: In TR-FRET formats the signal depends on donor and acceptor labels being close together.

Assay [4] concerns the target GST-tagged human ROCK2 catalytic domain 1-553 (Homo sapiens (Human), UniProt O75116). Description: Inhibition of Rho-associated protein kinase isoform 2 (LANCE Ultra ULight-CREBtide FRET kinase assay). The settings on record: for IC50: 30 μM was the highest concentration analyzed; for Selectivity for ROCK2 over ROCK1 (IC50 ROCK1 / IC50 ROCK2): selectivity ROCK2 vs ROCK1. In kind it is biochemical. An outline of the steps:
as §1

Chain of GST-tagged human ROCK1 catalytic domain 1-477 (Q13464 1-477): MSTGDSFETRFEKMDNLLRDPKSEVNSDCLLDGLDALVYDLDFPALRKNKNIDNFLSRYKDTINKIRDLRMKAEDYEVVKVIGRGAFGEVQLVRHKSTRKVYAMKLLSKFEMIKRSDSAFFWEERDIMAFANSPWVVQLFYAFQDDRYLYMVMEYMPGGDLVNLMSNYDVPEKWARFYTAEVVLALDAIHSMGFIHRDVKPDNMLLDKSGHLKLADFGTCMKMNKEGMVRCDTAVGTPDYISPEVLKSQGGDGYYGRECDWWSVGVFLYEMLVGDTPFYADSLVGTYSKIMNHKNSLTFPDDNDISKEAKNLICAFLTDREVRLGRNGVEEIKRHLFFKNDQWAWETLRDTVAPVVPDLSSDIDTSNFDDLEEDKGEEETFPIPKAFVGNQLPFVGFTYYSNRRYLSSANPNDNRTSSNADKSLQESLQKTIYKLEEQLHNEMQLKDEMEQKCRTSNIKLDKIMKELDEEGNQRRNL
Chain of GST-tagged human ROCK2 catalytic domain 1-553 (O75116 1-553): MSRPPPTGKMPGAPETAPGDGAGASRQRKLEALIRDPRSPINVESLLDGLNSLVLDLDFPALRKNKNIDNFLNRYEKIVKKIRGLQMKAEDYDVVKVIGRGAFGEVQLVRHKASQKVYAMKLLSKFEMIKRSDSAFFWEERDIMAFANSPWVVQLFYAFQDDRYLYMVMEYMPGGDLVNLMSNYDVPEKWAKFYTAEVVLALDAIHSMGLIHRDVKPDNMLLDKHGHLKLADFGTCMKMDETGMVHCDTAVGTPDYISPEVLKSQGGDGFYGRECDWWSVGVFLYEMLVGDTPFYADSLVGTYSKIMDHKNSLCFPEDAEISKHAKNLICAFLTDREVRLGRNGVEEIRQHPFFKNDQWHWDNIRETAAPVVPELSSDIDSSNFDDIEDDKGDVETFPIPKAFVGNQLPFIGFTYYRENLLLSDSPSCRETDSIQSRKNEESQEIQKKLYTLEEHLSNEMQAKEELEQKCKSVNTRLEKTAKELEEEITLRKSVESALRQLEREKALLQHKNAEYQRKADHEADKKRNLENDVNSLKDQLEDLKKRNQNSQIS

Turning to `O=S(=O)(c1cccc2cnccc12)N1CCCNCC1` [fasudil], the coronary stenosis result with ROCK [1] is on record as “progressively reduce coronary stenosis”. In addition, the “infarct size and neurologic deficit” value in the assay on ROCK [2] is “reduce both the infarct size and neurologic deficit”.
Take `CC(=O)Nc1cc(-c2ncco2)cc(-c2nnc(Nc3ccc4[nH]ncc4c3Cl)s2)c1.O=C(O)C(F)(F)F` [Example 46M]: the IC50 in assay [3] is over 30 µM. Further, in assay [4], the 50% inhibitory concentration (IC50) is under 1 µM and the “Selectivity for ROCK2 over ROCK1 (IC50 ROCK1 / IC50 ROCK2)” value (“Selectivity … (IC50 ROCK1 / IC50 ROCK2)” below) is listed as over 100.
In the case of `O=C(O)COc1cccc(-c2nnc(Nc3ccc4[nH]ncc4c3)s2)c1` [Example 35CO], the IC50 in assay [3] and in assay [4] was 1 to 15 µM throughout.
`CN1C(=O)Cc2c(-c3nnc(Nc4ccc5[nH]ncc5c4Cl)s3)cccc21.O=C(O)C(F)(F)F` [Example 43, 4-(5-((4-Chloro-1H-indazol-5-yl)amino)-1,3,4-thiadiazol-2-yl)-1-methylindolin-2-one 2,2,2-trifluoroacetic Acid Solvate]: the IC50 in assay [3] was 1 to 15 µM; in assay [4], under 1 µM. For the same compound, the “Selectivity … (IC50 ROCK1 / IC50 ROCK2)” value in assay [4] is recorded as over 5.
Taken in the same sequence, the figures for `O=C(Cc1ccccn1)Nc1cccc(-c2nnc(Nc3ccc4[nH]ncc4c3Cl)s2)c1` [Example 35BM] were over 30 µM, under 1 µM and over 100.
The compound `Clc1c(Nc2nnc(-c3cccn4cc(C5CCCN5)nc34)s2)ccc2[nH]ncc12` (stereo not drawn) [Example 50G] came in with an IC50 in assay [3] of under 1 µM. For the same compound, in assay [4], the IC50 was under 1 µM and the “Selectivity … (IC50 ROCK1 / IC50 ROCK2)” value is given as under 5.
`CC(C)NC(=O)COc1cccc(-c2nnc(Nc3ccc4[nH]ncc4c3)s2)c1` [Example A-23] gave an IC50 in assay [3] of over 30 µM. Moreover, in assay [4], the concentration for half-maximal inhibition (IC50) was under 1 µM and the “Selectivity … (IC50 ROCK1 / IC50 ROCK2)” value is reported as over 50.
As for `CC1(C)COC(c2cccc(-c3nnc(Nc4ccc5[nH]ncc5c4Cl)s3)c2)=N1` [Example 46F], the IC50 is 1 to 15 µM in assay [3] and under 1 µM in assay [4]. For the same compound, the “Selectivity … (IC50 ROCK1 / IC50 ROCK2)” value in assay [4] is over 5.
Taken in the same sequence, the figures for `Cn1cc(C(=O)Nc2cc(-c3nnc(Nc4ccc5[nH]ncc5c4Cl)s3)ccc2C(F)(F)F)cn1` [Example 48N] were over 30 µM, under 1 µM and over 100.
Taken in the same sequence, the figures for `Cc1cccc(-c2cccc(-c3nnc(Nc4ccc5[nH]ncc5c4Cl)s3)c2)n1` [Example 75R] were over 30 µM, under 1 µM and over 100.
Taken in the same sequence, the figures for `CC(C(=O)Nc1cccc(-c2nnc(Nc3ccc4[nH]ncc4c3Cl)s2)c1)c1ccc(F)cc1` (stereo not drawn) [Example 35E] were 1 to 15 µM, under 1 µM and over 50.
Turning to `Cc1cc(C(=O)Nc2cccc(-c3nnc(Nc4ccc5[nH]ncc5c4)s3)c2)[nH]n1` [Example A-39], the IC50 is 1 to 15 µM in assay [3] and under 1 µM in assay [4]. Moreover, the “Selectivity … (IC50 ROCK1 / IC50 ROCK2)” value in assay [4] is over 5.
Taken in the same sequence, the figures for `CCc1c(Nc2nnc(-c3cccc(NC(C)=O)c3)s2)ccc2[nH]ncc12` [Example 75C] were under 1 µM, under 1 µM and over 5.
Taken in the same sequence, the figures for `Nc1ccnc(-c2nnc(Nc3ccc4[nH]ncc4c3)s2)c1.O=C(O)C(F)(F)F` [Example 35CT] were over 30 µM, under 1 µM and over 5.
For `CCCOC(=O)Nc1cc(-c2nnc(Nc3ccc4[nH]ncc4c3Cl)s2)ccn1.O=C(O)C(F)(F)F` [Example 35F] the same measures were over 30 µM, under 1 µM and over 100.
In the case of `O=C(Nc1cc(-c2nnc(Nc3ccc4[nH]ncc4c3)s2)ccn1)c1c[nH]cn1` [Example A-32], the figures for the IC50 in assay [3] and in assay [4] were over 30 µM and under 1 µM, respectively. For the same compound, the “Selectivity … (IC50 ROCK1 / IC50 ROCK2)” value in assay [4] is reported as over 100.
Regarding `CC(C)C(=O)Nc1cccc(-c2nnc(Nc3ccc4[nH]ncc4c3Cl)s2)c1` [Example 35V], the IC50 in assay [3] and in assay [4] was under 1 µM throughout. Besides, the “Selectivity … (IC50 ROCK1 / IC50 ROCK2)” value in assay [4] is over 5.
The compound `O=C(Cc1cccc(C(F)(F)F)n1)Nc1cccc(-c2nnc(Nc3ccc4[nH]ncc4c3Cl)s2)c1` [Example 35AI] returned an IC50 in assay [3] of under 1 µM. Besides, in assay [4], the IC50 is under 1 µM and the “Selectivity … (IC50 ROCK1 / IC50 ROCK2)” value was over 5.
As for `Cn1cc(C(=O)Nc2cncc(-c3nnc(Nc4ccc5[nH]ncc5c4)s3)c2)cn1.O=C(O)C(F)(F)F` [Example 35CA], the half-inhibitory concentration (IC50) in assay [3] and in assay [4] was under 1 µM in each case. Besides, the “Selectivity … (IC50 ROCK1 / IC50 ROCK2)” value in assay [4] is on record as under 5.
With `CN(c1nnc(-c2cccc(NC(=O)Cc3ccc(F)cc3)c2)s1)c1ccc2[nH]ncc2c1Cl` [Example 75U], the IC50 in assay [3] and in assay [4] was over 30 µM each time.
In assay [3], `Cn1cc(C(=O)Nc2cccc(-c3nnc(Nc4ccc5[nH]ncc5c4Cl)s3)c2)cn1` [Example A-11] showed an IC50 of over 30 µM. Also, in assay [4], the IC50 is under 1 µM and the “Selectivity … (IC50 ROCK1 / IC50 ROCK2)” value was over 100.

By IC50 is commonly meant the concentration needed to halve the response being measured. A lower IC50 goes with greater potency.
